US9629828B2, “Methods of treating traveler's diarrhea and hepatic encephalopathy” (priority 2008, dated 2017)
“And” between values parts separate entries of the source, which are not always exact repeats. Equal entries are not always repeated.

Experiments:
Tg.rasH2 mice = conditions: Tg.rasH2, mouse, in vivo, 26 weeks
[1] = system: subjects in remission from hepatic encephalopathy (HE); assay: First study: HE-related, HE-caused and all-cause hospitalization; type: in vivo, human; conditions: for Probability of no HE-related hospitalization: Kaplan-Meier; for Probability of no HE-related hospitalization / Cumulative number of events (HE-related hospitalization) / Event probability (HE-related hospitalization during the treatment interval) / Number of events (HE-related hospitalization): ITT, N = 140
Excerpt: The analysis of time to first HE-related hospitalization was based on the comparison of time to hospitalization between rifaximin and placebo.
FIG. 9 illustrates time to first HE-related hospitalization (e.g., hospitalization directly resulting from HE or hospitalization caused by HE) by treatment group in the ITT population in the first study. Table 19 presents estimates of the proportions of subjects who had their first HE-related hospitalization over the course of the Treatment Period and results of statistical analyses. Subjects who discontinued prior to hospitalization due to HE and prior to completion of the 6-month treatment period were censored at the time of discontinuation. […] This hazard ratio represents a 50% reduction, when compared with placebo, in the risk of hospitalization due to HE during the 6-month treatment period.
FIG. 5 illustrates time to first HE-caused hospitalizations by treatment group in the first study.

[2] = system: subjects in remission from hepatic encephalopathy (HE); assay: First study: critical flicker frequency (CFF) test; type: in vivo, human; conditions: for Critical flicker frequency test: r9 Mean, r11 Median, r12 Min, r13 Max; for Mean (SD) change in CFF result: baseline to end of treatment
Description: The Critical Flicker Frequency (CFF) was assessed for each subject at screening, baseline, visits 3 through 14 and the end of study visit using the Lafayette Flicker Fusion (Lafayette Instrument Company, Inc). Circular light pulses with a 1:1 ratio between the visual impulse and the interval were used with decreasing frequency in gradual steps of 0.5 to 0.1 Hz/second. The frequency of the white light, which is initially generated as a high-frequency pulse (50 Hz) and which gives the patient the impression of a steady light, was reduced gradually until the patient had the impression that the steady light had changed to a flicker. The patient registered this change by pressing a hand-held switch. […] The process was conducted in a quiet, semi-darkened room without distracting noises and took about 10 minutes.
The critical flicker frequency (CFF) was assessed for each subject using a specialized CFF instrument. The CFF is the frequency at which the subject observes a constant light transition to a flickering light and is measured in Hertz (Hz). CFF is an objective assessment of mental status.
The CFF was measured on a continuous scale and was the mean of 8 separate fusion-to-flicker transition tests performed in rapid succession.
Mean values and mean changes from baseline in blood ammonia concentration and critical flicker frequency values were collected. Analyses of blood ammonia concentrations and critical flicker frequency values were based upon quantitative values (not qualitative grades). Treatment differences for mean change from baseline in these parameters was estimated using a mixed effects model with fixed effects for time and baseline value.

[3] = treatment interval 0 to <28 days
[4] = treatment interval 28 to <56 days
[5] = treatment interval 56 to <84 days
[6] = treatment interval 84 to <140 days
[7] = treatment interval 140 to <168 days

**Q.** How did the “female mice with ruffled fur and hunched appearance” value (Tg.rasH2 mice) turn out when `CO[C@H]1/C=C/O[C@@]2(C)Oc3c(C)c(O)c4c(O)c(c5c(nc6cc(C)ccn65)c4c3C2=O)NC(=O)/C(C)=C\C=C\[C@H](C)[C@H](O)[C@@H](C)[C@@H](O)[C@@H](C)[C@H](OC(C)=O)[C@@H]1C` [rifaximin, (2S,16Z,18E,20S,21S,22R,23R,24R,25 S,26S,27S,28E)-5,6,21,23,25-pentahydroxy-27-methoxy-2,4,11,16,20,22,24,26-octamethyl-2,7-(epoxypentadeca-[1,11,13]trienimino)benzofuro[4,5-e]pyrido[1,2-á]-benzimidazole-1,15(2H)-dione,25-acetate] was run?
**A.** The value was 2/25.

**Q.** And the “reduction in risk of HE-caused hospitalization vs placebo” value ([1]; 6-month treatment)?
**A.** Its value is 56%.

**Q.** What about the “reduction in risk of HE-related hospitalization vs placebo” value ([1]; 6-month treatment) of the same molecule?
**A.** Its value is 50%.

**Q.** And the “Probability of no HE-related hospitalization” value [1, 3]?
**A.** Its value is 1.0000.

**Q.** And the “Probability of no HE-related hospitalization” value [1, 4]?
**A.** Its value is 0.9711.

**Q.** What about the “Probability of no HE-related hospitalization” value [1, 5] of the same molecule?
**A.** Its value is 0.9411.

**Q.** What about the “Probability of no HE-related hospitalization” value [1, 6] of the same molecule?
**A.** The value was 0.0904.

**Q.** What about the “Probability of no HE-related hospitalization” value [1, 7] of the same molecule?
**A.** The value was 0.8665.

**Q.** What about the “Probability of no HE-related hospitalization” value ([1]; treatment interval ≧168 days) of the same molecule?
**A.** The value was 0.8475.

**Q.** And the Survival ([1]; Table 4, N = 140, days r11-r21 as E901)?
**A.** The Survival was 1.0000 and 0.9564 and 0.9258 and 0.8848 and 0.8403 and 0.8108.

**Q.** What about the Survival ([1]; Table 17, days r10-r15 as E2201) of the same molecule?
**A.** The Survival was 1.0000 and 0.9711 and 0.9411 and 0.9094 and 0.8665 and 0.8475.

**Q.** What about the HE-caused hospitalization rate ([1]; first study) of the same molecule?
**A.** Its HE-caused hospitalization rate is 0.30 events/PEY.

**Q.** And the “HE-related hospitalization rate lower than placebo” value ([1]; in vivo)?
**A.** The value was 51%.

**Q.** What about the “reduction in risk of all-cause hospitalization vs placebo” value ([1]; in vivo) of the same molecule?
**A.** Its value is 30%.

**Q.** And the “subjects with HE-caused hospitalizations” value ([1]; in vivo)?
**A.** Its value is 15 of 140.

**Q.** What about the “subjects with all-cause hospitalization” value ([1]; in vivo) of the same molecule?
**A.** Its value is 46 of 140.

**Q.** What about the “time to first HE related hospitalization vs placebo (FIG. 3)” value ([1]; in vivo) of the same molecule?
**A.** Its value is “increased time to hospitalization”.

**Q.** What about the HE-related hospitalization rate ([1]; normalized to exposure) of the same molecule?
**A.** Its HE-related hospitalization rate is 0.38 event/PEY.

**Q.** And the “Cumulative number of events (HE-related hospitalization)” value (from here on “Cumulative number of events”) [1, 3]?
**A.** Its value is 4.

**Q.** And the “Event probability (HE-related hospitalization during the treatment interval)” value [1, 3]?
**A.** The value was 0.03.

**Q.** And the “Number of events (HE-related hospitalization)” value [1, 3]?
**A.** Its value is 4.

**Q.** And the “Cumulative number of events” value [1, 4]?
**A.** Its value is 8.

**Q.** And the “Event probability (HE-related hospitalization during the treatment interval)” value [1, 4]?
**A.** Its value is 0.03.

**Q.** What about the “Number of events (HE-related hospitalization)” value [1, 4] of the same molecule?
**A.** Its value is 4.

**Q.** What about the “Cumulative number of events” value [1, 5] of the same molecule?
**A.** Its value is 12.

**Q.** What about the “Event probability (HE-related hospitalization during the treatment interval)” value [1, 5] of the same molecule?
**A.** The value was 0.03.

**Q.** And the “Number of events (HE-related hospitalization)” value [1, 5]?
**A.** The value was 4.

**Q.** And the “Cumulative number of events” value [1, 6]?
**A.** Its value is 17.

**Q.** What about the “Event probability (HE-related hospitalization during the treatment interval)” value [1, 6] of the same molecule?
**A.** The value was 0.05.

**Q.** And the “Number of events (HE-related hospitalization)” value [1, 6]?
**A.** The value was 5.

**Q.** And the “Cumulative number of events” value [1, 7]?
**A.** Its value is 19.

**Q.** What about the “Event probability (HE-related hospitalization during the treatment interval)” value [1, 7] of the same molecule?
**A.** Its value is 0.02.

**Q.** What about the “Number of events (HE-related hospitalization)” value [1, 7] of the same molecule?
**A.** Its value is 2.

**Q.** And the “Cumulative number of events” value ([1]; treatment interval ≧168 days)?
**A.** The value was 19.

**Q.** What about the “Event probability (HE-related hospitalization during the treatment interval)” value ([1]; treatment interval ≧168 days) of the same molecule?
**A.** Its value is 0.

**Q.** What about the “Number of events (HE-related hospitalization)” value ([1]; treatment interval ≧168 days) of the same molecule?
**A.** Its value is 0.

**Q.** And the “Mean (SD) CFF result” value ([2]; Baseline)?
**A.** The value was 36.90 (5.47) Hz.

**Q.** And the “Critical flicker frequency test” value ([2]; Day 140, mean)?
**A.** The value was 38.7 Hz.

**Q.** What about the “Critical flicker frequency test” value ([2]; Day 140, median) of the same molecule?
**A.** The value was 38.9 Hz.

**Q.** And the “Critical flicker frequency test” value ([2]; EOT, median)?
**A.** The value was 37.8 Hz.

**Q.** And the “Mean (SD) CFF result” value ([2]; End of treatment)?
**A.** The value was 37.81 (4.88) Hz.

**Q.** And the “Mean (SD) change in CFF result” value [2]?
**A.** Its value is 0.945 (±4.75) Hz.

**Q.** What about the “Mean (SD) change in CFF result” value ([2]; listed as Rifaximin) of the same molecule?
**A.** Its value is 0.945 (4.75) Hz.

**Q.** What about the “improvement in CFF results compared with placebo” value ([2]; in vivo) of the same molecule?
**A.** Its value is “statistically significant greater improvement”.
